A word on the IC50: it is the concentration at which inhibition is half-maximal.

The test deals with Protein kinase C theta type (Homo sapiens, UniProt Q04759). Briefly: Inhibition of N-terminal FLAG-tagged PKCtheta (unknown origin) expressed in baculovirus expression system using fluorescein-PKC as substrate preincubated for 5 mins followed by substrate addition measured after 60 mins in presence of ATP by Lathascreen TR-FRET assay. On the technique in general: TR-FRET usually uses a lanthanide donor and a delayed reading to cut background.
Sequence of Protein kinase C theta type (Q04759 whole entry): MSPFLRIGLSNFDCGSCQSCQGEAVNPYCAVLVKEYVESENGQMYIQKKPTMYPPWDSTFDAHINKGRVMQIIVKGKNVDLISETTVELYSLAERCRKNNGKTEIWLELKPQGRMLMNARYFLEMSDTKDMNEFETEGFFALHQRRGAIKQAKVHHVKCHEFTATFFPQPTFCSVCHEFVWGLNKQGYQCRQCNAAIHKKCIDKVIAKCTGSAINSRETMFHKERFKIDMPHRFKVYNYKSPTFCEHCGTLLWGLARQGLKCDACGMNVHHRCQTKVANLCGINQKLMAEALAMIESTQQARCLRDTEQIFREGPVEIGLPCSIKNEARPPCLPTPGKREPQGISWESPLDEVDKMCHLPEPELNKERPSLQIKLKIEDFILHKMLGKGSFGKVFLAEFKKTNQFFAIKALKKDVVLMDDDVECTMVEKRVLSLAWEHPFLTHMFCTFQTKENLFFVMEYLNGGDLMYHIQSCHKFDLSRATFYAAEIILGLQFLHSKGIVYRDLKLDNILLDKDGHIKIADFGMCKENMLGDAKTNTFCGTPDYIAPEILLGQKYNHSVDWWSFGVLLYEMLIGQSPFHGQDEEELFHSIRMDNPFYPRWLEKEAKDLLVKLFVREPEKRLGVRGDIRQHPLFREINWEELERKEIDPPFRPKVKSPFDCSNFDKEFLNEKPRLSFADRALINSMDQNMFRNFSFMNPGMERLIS
For `O=c1[nH]c2ncccc2n1-c1nc(N2CCCNCC2)ccc1F`, the IC50 amounted to 100 nM.

For the molecule `O=c1[nH]c2ncccc2n1-c1nc(N2CCCNCC2)ccc1Cl`, the IC50 worked out at 18 nM. In the case of `CCOc1ccnc2[nH]c(=O)n(-c3nc(N4CCCNCC4)ccc3Cl)c12`, the IC50 was 0.086 nM.

In the case of `O=c1[nH]c2ncccc2n1-c1nc(N2CCCC(C(O)C3CC3)C2)ccc1F` (stereo unspecified), the IC50 is greater than 1000 nM. Take `CN1CCCCOc2ccnc3[nH]c(=O)n(c23)-c2nc1ccc2Cl`: the 50% inhibitory concentration (IC50) is 0.87 nM. On to `CN1CCCOc2ccnc3[nH]c(=O)n(c23)-c2nc1ccc2Cl`, for which the half-maximal inhibitory concentration (IC50) is 6.7 nM.

`O=c1[nH]c2nccc3c2n1-c1nc(ccc1Cl)OCCCCO3`: the IC50 is 14 nM.

Turning to `CC(C)CC1CCCN1c1ccc(F)c(-n2c(=O)[nH]c3ncccc32)n1` (racemic), the IC50 is 250 nM.

`CC(C)(C)OC(=O)N1CCN(c2ccc([N+](=O)[O-])c(-n3c(=O)[nH]c4ncccc43)n2)C(c2ccccc2)C1` (racemic): the IC50 was 0.18 nM. As for `N#Cc1ccc(N2CCNCC2c2ccccc2)nc1-n1c(=O)[nH]c2ncccc21` (racemic), the IC50 was found to be 6.3 nM.

`COc1ccnc2[nH]c(=O)n(-c3nc(N4CCNC(c5ccccc5)C4)ccc3Cl)c12` (racemic): the IC50 turned out to be 33 nM.
